Tests used:
Test in all cases: relative viability (nuclei count vs DMSO), 5 days (fraction); higher = more cells survive
NCI-H1792 = system: NCI-H1792
Summary of the method: (§1)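 Five library-drug doses in √10 steps were combined with a fixed anchor-drug dose, or a single drug was given alone, by pin tool to lung cancer cell lines in 1536-well plates the day after seeding. Nuclei were stained and counted after 5 days. Relative viability is the nuclei count in treated wells over that in vehicle wells, taken as the median of duplicate plates.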

ChaGo-K-1 = system: ChaGo-K-1
Summary of the method: as §1

HCC-366 = system: HCC-366
Summary of the method: as §1

NCI-H2405 = system: NCI-H2405
Summary of the method: as §1

NCI-H460 = system: NCI-H460
Summary of the method: as §1

LCLC-97TM1 = system: LCLC-97TM1
Summary of the method: as §1

NCI-H1734 = system: NCI-H1734
Summary of the method: as §1

COR-L23 = system: COR-L23
Summary of the method: as §1

SK-LU-1 = system: SK-LU-1
Summary of the method: as §1

HCC-78 = system: HCC-78
Summary of the method: as §1

LK-2 = system: LK-2
Summary of the method: as §1

NCI-H1355 = system: NCI-H1355
Summary of the method: as §1

201T = system: 201T
Summary of the method: as §1

NCI-H2085 = system: NCI-H2085
Summary of the method: as §1

NCI-H1993 = system: NCI-H1993
Summary of the method: as §1

NCI-H838 = system: NCI-H838
Summary of the method: as §1

HARA = system: HARA
Summary of the method: as §1

NCI-H520 = system: NCI-H520
Summary of the method: as §1

NCI-H3122 = system: NCI-H3122
Summary of the method: as §1

NCI-H1975 = system: NCI-H1975
Summary of the method: as §1

HCC-15 = system: HCC-15
Summary of the method: as §1

NCI-H1650 = system: NCI-H1650
Summary of the method: as §1

LOU-NH91 = system: LOU-NH91
Summary of the method: as §1

Molecule Oc1nc(-c2ccc(C(F)(F)F)cc2)nc2c1CSCC2 [XAV939] + Nc1ncn([C@H]2C[C@H](O)[C@@H](CO)O2)c(=O)n1 [Decitabine] (partner 2 µM) has a relative viability (NCI-H1792; first compound 0.08 µM) of 0.604, a relative viability (NCI-H1792; first compound 0.253 µM) of 0.485 and a relative viability (NCI-H1792; first compound 0.8 µM) of 0.503. For the same molecule, the relative viability (NCI-H1792; first compound 2.53 µM) was 0.42, the relative viability (ChaGo-K-1; first compound 0.08 µM) was 0.495 and the relative viability (ChaGo-K-1; first compound 0.253 µM) was 0.505. For the same molecule, the relative viability (ChaGo-K-1; first compound 0.8 µM) was 0.507, the relative viability (ChaGo-K-1; first compound 2.53 µM) was 0.494 and the relative viability (HCC-366; first compound 0.08 µM) was 0.329. For the same molecule, the relative viability (HCC-366; first compound 0.253 µM) was 0.299, the relative viability (HCC-366; first compound 0.8 µM) was 0.326 and the relative viability (HCC-366; first compound 2.53 µM) was 0.31. It also gave a relative viability (NCI-H2405; first compound 0.08 µM) of 0.776, a relative viability (NCI-H2405; first compound 0.253 µM) of 0.721 and a relative viability (NCI-H2405; first compound 0.8 µM) of 0.709. The relative viability (NCI-H2405; first compound 2.53 µM) was 0.689, the relative viability (NCI-H460; first compound 0.08 µM) was 0.599 and the relative viability (NCI-H460; first compound 0.253 µM) was 0.443. For the same molecule, the relative viability (NCI-H460; first compound 0.8 µM) was 0.501, the relative viability (NCI-H460; first compound 2.53 µM) was 0.458 and the relative viability (LCLC-97TM1; first compound 0.08 µM) was 0.211. For the same molecule, the relative viability (LCLC-97TM1; first compound 0.253 µM) was 0.245, the relative viability (LCLC-97TM1; first compound 2.53 µM) was 0.21 and the relative viability (NCI-H1734; first compound 0.08 µM) was 0.489. It also gave a relative viability (NCI-H1734; first compound 0.253 µM) of 0.433, a relative viability (NCI-H1734; first compound 0.8 µM) of 0.494 and a relative viability (NCI-H1734; first compound 2.53 µM) of 0.475. The relative viability (COR-L23; first compound 0.08 µM) was 0.444, the relative viability (COR-L23; first compound 0.253 µM) was 0.414 and the relative viability (COR-L23; first compound 0.8 µM) was 0.424. It also gave a relative viability (COR-L23; first compound 2.53 µM) of 0.378, a relative viability (SK-LU-1; first compound 0.08 µM) of 0.665 and a relative viability (SK-LU-1; first compound 0.253 µM) of 0.523. For the same molecule, the relative viability (SK-LU-1; first compound 0.8 µM) was 0.652, the relative viability (SK-LU-1; first compound 2.53 µM) was 0.688 and the relative viability (HCC-78; first compound 0.08 µM) was 0.679. It also gave a relative viability (HCC-78; first compound 0.253 µM) of 0.655, a relative viability (HCC-78; first compound 0.8 µM) of 0.732 and a relative viability (HCC-78; first compound 2.53 µM) of 0.642. For the same molecule, the relative viability (LK-2; first compound 0.08 µM) was 0.263, the relative viability (LK-2; first compound 0.253 µM) was 0.322 and the relative viability (LK-2; first compound 0.8 µM) was 0.318. It also gave a relative viability (LK-2; first compound 2.53 µM) of 0.189, a relative viability (NCI-H1355; first compound 0.08 µM) of 0.357 and a relative viability (NCI-H1355; first compound 0.253 µM) of 0.309. For the same molecule, the relative viability (NCI-H1355; first compound 0.8 µM) was 0.393, the relative viability (NCI-H1355; first compound 2.53 µM) was 0.298 and the relative viability (201T; first compound 0.08 µM) was 0.87. It also gave a relative viability (201T; first compound 0.253 µM) of 0.901, a relative viability (201T; first compound 0.8 µM) of 0.779 and a relative viability (201T; first compound 2.53 µM) of 0.788. It also gave a relative viability (NCI-H2085; first compound 0.08 µM) of 0.536, a relative viability (NCI-H2085; first compound 0.253 µM) of 0.494 and a relative viability (NCI-H2085; first compound 0.8 µM) of 0.537. The relative viability (NCI-H2085; first compound 2.53 µM) was 0.462, the relative viability (NCI-H1993; first compound 0.08 µM) was 0.527 and the relative viability (NCI-H1993; first compound 0.253 µM) was 0.224. The relative viability (NCI-H1993; first compound 0.8 µM) was 0.567, the relative viability (NCI-H1993; first compound 2.53 µM) was 0.467 and the relative viability (NCI-H838; first compound 0.08 µM) was 0.488. For the same molecule, the relative viability (NCI-H838; first compound 0.253 µM) was 0.442, the relative viability (NCI-H838; first compound 0.8 µM) was 0.458 and the relative viability (NCI-H838; first compound 2.53 µM) was 0.384. For the same molecule, the relative viability (HARA; first compound 0.08 µM) was 0.552, the relative viability (HARA; first compound 0.253 µM) was 0.51 and the relative viability (HARA; first compound 0.8 µM) was 0.626. For the same molecule, the relative viability (HARA; first compound 2.53 µM) was 0.379, the relative viability (NCI-H520; first compound 0.08 µM) was 0.54 and the relative viability (NCI-H520; first compound 0.8 µM) was 0.457. For the same molecule, the relative viability (NCI-H520; first compound 2.53 µM) was 0.495, the relative viability (NCI-H3122; first compound 0.08 µM) was 0.572 and the relative viability (NCI-H3122; first compound 0.253 µM) was 0.401. For the same molecule, the relative viability (NCI-H3122; first compound 0.8 µM) was 0.51, the relative viability (NCI-H3122; first compound 2.53 µM) was 0.394 and the relative viability (NCI-H1975; first compound 0.08 µM) was 0.382. It also gave a relative viability (NCI-H1975; first compound 0.253 µM) of 0.357, a relative viability (NCI-H1975; first compound 0.8 µM) of 0.379 and a relative viability (NCI-H1975; first compound 2.53 µM) of 0.354. The relative viability (HCC-15; first compound 0.08 µM) was 0.702, the relative viability (HCC-15; first compound 0.253 µM) was 0.656 and the relative viability (HCC-15; first compound 0.8 µM) was 0.656. The relative viability (HCC-15; first compound 2.53 µM) was 0.635, the relative viability (NCI-H1650; first compound 0.08 µM) was 0.407 and the relative viability (NCI-H1650; first compound 0.253 µM) was 0.445. The relative viability (NCI-H1650; first compound 0.8 µM) was 0.361, the relative viability (NCI-H1650; first compound 2.53 µM) was 0.439 and the relative viability (LOU-NH91; first compound 0.08 µM) was 0.806. For the same molecule, the relative viability (LOU-NH91; first compound 0.253 µM) was 0.75, the relative viability (LOU-NH91; first compound 0.8 µM) was 0.819 and the relative viability (LOU-NH91; first compound 2.53 µM) was 0.801.
